Results on two compounds are retold here after patent publication US20240103005A1, “N-ACRYLOYLINDOLES AND METHODS OF USE” (The University of Hong Kong, priority 2022, published 2024).

Experiment [1] can be described thus: Reaction kinetics of cysteine-reactive compounds with N-acetyl-L-cysteine methyl ester (LC-MS). The experiment is classed as physicochemical. As for the experimental part:
Reaction Kinetics of Cysteine-Reactive Compounds with N-Acetyl-L-Cysteine Methyl Ester
Stock solution of cysteine-reactive compound in DMSO was diluted by PBS/MeOH solution mixture (4:1, v/v; 500 μL), reaching final concentration of 10 μM. Stock solution of N-acetyl-L-cysteine methyl ester in DMSO was then freshly prepared, and added to the compound solution at final concentration of 250 μM. The solution mixture was incubated at room temperature, and at predetermined time intervals, an aliquot of the reaction mixture (10 μL) was sent for LC-MS analysis on Waters Autopurification System using a SunFire C18 HPLC column (50×4.6 mm with 5 μm diameter particles, Waters). Separation was achieved by gradient elution from 5% to 100% MeCN in water (constant 0.1 vol % formic acid) over 4 min, isocratic elution with 100% MeCN (with 0.1 vol % formic acid) from 4 to 8 min, and returning to 5% MeCN in water (with 0.1 vol % formic acid) and equilibrated for 2 min. Selected ion chromatograms, with m/z corresponding to the molecular ion of the compound and/or the adduct, were extracted and the data was analyzed using MassLynx™ software by calculating the area under the curve. The peak area was then calibrated to concentration of the compound/adduct by a set of solution mixtures containing known concentrations of the compound/adduct.
The reactivity of NAIA with cysteine in aqueous buffer solution has been investigated by LC-MS experiments (FIGS. 1A-1J). […] Upon addition of N-acetylcysteine methyl ester (250 μM), NAIA-5 reacted quickly and completely with N-acetylcysteine methyl ester within […], as reflected by the diminishment of the peak of NAIA-5 at t=6.20 min with a concomitant growth of a new peak at t=5.60 min in the LC, which is attributable to the cysteine adduct of NAIA-5 based on the MS (FIGS. 1B-1G). […] This highlights the important contribution of aromaticity of indole scaffold to increase electrophilicity of acrylamide warhead for fast and complete cysteine reaction in aqueous buffer solution.
Next, we monitored the reaction between NAIA-amide (10 μM) and N-acetylcysteine methyl ester (250 μM) by LC-MS analysis (FIG. 17A). Complete conversion of NAIA-C5 amide was observed within 40 s as indicated by the disappearance of NAIA-C5 amide peak (t=5.09 min) and emergence of the adduct peat (t=4.80 min) in the LC trace (FIG. 17B). Likewise, the reaction of NAIA-C4 amide proceeded with fast kinetics and was completely consumed in 1 min (FIG. 17C). The calculated rate constant of NAIA-C5 amide and NAIA-C4 amide were 2-fold and 1.2-fold faster than NAIA (FIG. 17D). […] Owning to the excellent reaction rate of NAIA-C5 amide, it was taken forward for further comparative analysis in subsequent experiments.

The nature of experiment [2]: Selectivity for reacting with Cys over other amino acids (LC-MS). The format is physicochemical. The following applies: compound 10 μM, amino acid 30 μM (3 equiv.), 30 min, PBS/MeOH 4:1. As for the experimental part:
Selectivity of NAI for Reacting with Cys Over Other Amino Acids
Stock solution of NAIA-4 and NAIA-5, respectively, in DMSO was diluted by PBS/MeOH solution mixture (4:1, v/v; 500 μL), reaching final concentration of 10 μM. Stock solution of amino acid in DMSO was then freshly prepared, and added to the compound solution at final concentration of 30 μM. The solution mixture was incubated at room temperature for 30 min. After that, an aliquot of the reaction mixture (10 μL) was sent for LC-MS analysis. Selected ion chromatograms, with m/z=325 corresponding to [NAIA-4+H]^+ or [NAIA-5+H]^+, were extracted and analyzed by integrating the area under curve.
As fast-reacting probes are often susceptible to hydrolysis, we sought to investigate the aqueous stability of NAIA-C5 amide. […] Taking the excellent reaction kinetics and a mere 14% degradation in 30 min into account, NAIA-C5 amide was considered to be a useful tool in cysteine profiling (FIG. 17C and FIG. 17F).

The subject of experiment [3] is HepG2 cells. Kind of experiment: Imaging a decrease in free thiol level in HepG2 cells under oxidative stress. The format is cell-based. The following applies: 10 min; for fluorescence from labeling of free thiols, solvent control cells: 50 μM, same imaging parameters; for change in cellular fluorescence intensity upon H2O2 pretreatment: H2O2 0.5 or 1 mM 15 min, probe 50 μM. How it is done:
Imaging a Decrease in Free Thiol Level in HepG2 Cells Under Oxidative Stress by NAIA-5 or IAA
HepG2 cells were plated on a 8-well Nunc Lab-Tek chambered slide system and allowed to grow in complete medium at 37° C. with 5% CO2 to ca. 70% confluency. The cells were then pretreated with solvent vehicles, H2O2 (0.5 or 1 mM) or H2O2 (1 mM)+NAC (5 mM) in complete medium for 15 min at 37° C. The cells were washed with PBS and incubated with NAIA-5 or IAA (50 μM) in complete medium for 10 min at 37° C. After that, the cells were washed with PBS and fixed by 4% paraformaldehyde in PBS at room temperature for 15 min. The fixed cells were washed with PBS, permeabilized by PBS with 0.5 vol % Triton X-100 at room temperature for 30 min, washed again with PBS and incubated with a master mix solution containing CuSO4, THTPA, azide-fluor 545 and sodium ascorbate at final concentrations of 100, 500, 20 and 5000 μM respectively. After incubation in dark at room temperature for 1 h, the cells were washed with PBS and stained by Hoechst 33342 in PBS (final concentration=8.2 μM) at room temperature for 15 min. The cells were washed thrice with PBS and then imaged in PBS by confocal fluorescence microscopy.
Confocal fluorescence microscopy imaging was performed with a Zeiss laser scanning microscope 880 with a 20× water-immersion objective lens using ZEN 2.3 (Black Version) software (Carl Zeiss) with 3× magnification zoom-in. Hoechst 33342 was excited with a 405 nm diode laser, and emission was collected on a META detector between 371 and 507 nm. Fluor 545 was excited by a 561 nm diode laser and emission was collected on a META detector between 576 and 683 nm. Image analysis was performed by use of ImageJ. A region of interest (ROI) was created around individual cell, and cellular fluorescence intensity was measured. The reported average cellular fluorescence intensity was determined by averaging the measured intensity from 30 different cells from 3 different biological replicates/group. Statistical analyses were performed with a two-tailed Student's t-test (MS Excel).
These attractive features indicate the good potential of using NAIs/NAIAs to trap cellular thiols in live cells that should allow better identification of cysteine oxidative modifications. To explore this potential application, we first sought to capture and image free thiols by NAIA-5 in live HepG2 cells by confocal fluorescence microscopy (FIG. 4A). HepG2 cells were pretreated with solvent vehicles, H2O2 or H2O2+N-acetyl cysteine (NAC), where NAC can scavenge H2O2 and relieve the oxidative stress in the HepG2 cells. After the pretreatment, the cells were incubated with NAIA-5 or IAA (50 μM) for 10 min to ligand and snap-shot free cellular thiols. […]

The mark [4] stands for this setting: compound 10 μM, N-Ac-Cys-OMe 250 μM, PBS/MeOH 4:1.

Structures are written as SMILES. Entries after “also recorded” stand apart in the source; their conditions may differ.

Turning to `C#CCCCCNC(=O)COc1ccc2c(ccn2C(=O)C=C)c1` [NAIA-5], the “time to complete reaction with N-acetylcysteine methyl ester” value in experiment [1] (setting [4]) is not above 300 s. The “selectivity toward cysteine over other amino acids” value in experiment [2] was “excellent selectivity toward cysteine over other amino acids; also recorded: Significant decreases in NAIA-4 and NAIA-5 levels were only found in the solution mixture with N-acetyl-L-cysteine methyl ester”. For the same compound, in experiment [3], the “fluorescence from labeling of free thiols, solvent control cells” value was “strong fluorescence from NAIA-5 labeling” and the “change in cellular fluorescence intensity upon H2O2 pretreatment” value was “H2O2 dose-dependent decrease in cellular fluorescence intensity”.

Take `C#CCCCCNC(=O)CI` [IAA, N-Hex-5-ynyl-2-iodoacetamide, reference compound]: the “reaction kinetics with cysteine (k)” value in experiment [1] (FIG. 7 legend summary) is given as ~10^0 M^−1 s^−1. Moreover, the “cysteine reaction rate (in words)” value in experiment [1] (compound 10 μM, N-Ac-Cys-OMe 250 μM) is recorded as “react much slower with cysteine than our NAIAs”. In addition, the compound left unreacted entry in experiment [1] (setting [4]) was “more than 40%”. The “selectivity toward cysteine over other amino acids” value in experiment [2] is “undesired reactivity with serine and lysine”. In addition, in experiment [3], the “fluorescence from labeling of free thiols, solvent control cells” value is on record as “almost no fluorescence can be detected in IAA-labeled cells” and the “change in cellular fluorescence intensity upon H2O2 pretreatment” value is given as “cannot see statistically significant changes in fluorescence intensity”.
